Assays:
[1] = system: Spodoptera litura; test: Insecticidal effect for Spodoptera litura by spraying treatment to host crop (Test Example 2); type: in vivo; conditions: 100 ppm, sprayed on soybean, third-instar larvae of Spodoptera litura, fifth day after; for pest or weed control at 100 ppm: 120 h, read-out: rate of dead pests (%)
Protocol: Insecticidal Effect for Spodoptera litura by Spraying Treatment to Host Crop
A pesticidal solution, which was prepared by dissolving 5 mg of test compound (represented by the compound Nos. in the above Examples) in 0.5-ml of acetone containing Tween 20 (trade name) and then diluting it to the prescribed concentration (100 ppm) with Dain (trade name, sticker) water diluted 5000-fold, was sprayed on a soybean whose primary leaves had developed completely with spray gun in the amounts wherein the pesticidal solution dripped. After drying the pesticidal solution, two primary leaves were cut off. The leaves were put into an ice cream cup (180 ml), and ten third-instar larvae of Spodoptera litura were set free therein. The cup was left in a temperature-controlled breeding room (25° C.). On the fifth day after, the number of surviving Spodoptera litura was examined. The rate of dead pests was calculated by the following formula. rate of dead pests (%)=(number of dead pests/number of test pests)×100

[2] = system: Spodoptera litura; test: Insecticidal effect for Spodoptera litura by immersion treatment of host crop root (Test Example 4); type: in vivo; conditions: soybean root immersion 5 days, second-instar larvae of Spodoptera litura, fifth day after; for pest or weed control at 25 ppm: 120 h, read-out: rate of dead pests (%)
Protocol: Insecticidal Effect for Spodoptera litura by Immersion Treatment of Host Crop Root Roots of primary leaves developing stage soybean was washed with tap water to remove soil, and then immersed in a pesticidal solution which was prepared by dissolving 5 mg of test compound (represented by the compound Nos. in the above Examples) in 0.5 ml of acetone containing Tween 20 ([…]) with ion-exchange water, and which was filled in a light-shielded Erlenmeyer flask (100 ml). On the fifth day after immersion of root, two primary leaves were cut off, and the leaves were put into an ice cream cup (180 ml). Ten second-instar larvae of Spodoptera litura were set free therein, and the cup was left in a temperature-controlled breeding room (25° C.). On the fifth day after, the number of surviving Spodoptera litura was examined. The rate of dead pests was calculated by the following formula. rate of dead pests (%)=(number of dead pests/number of test pests)×100

Row | SMILES | rate of dead pests (%) [1] [%] | rate of dead pests (%) ([2]; 25 ppm) | other results
1 | O=C(c1c(F)cccc1F)N1COCN(c2ccc(Cl)cc2)C1=O [I-1, 3-(4-chlorophenyl)-5-(2,6-difluorobenzoyl)tetrahydro-4H-1,3,5-oxadiazin-4-one] |  |  | pest or weed control at 100 ppm [1]: 100%; pest or weed control at 25 ppm ([2]; 25 ppm): 100%
2 | C[S+]([O-])c1cc(F)c(N2COCN(C(=O)c3c(F)cccc3F)C2=O)c(F)c1 (stereo not drawn) [I-32] | 100 | 90 | 
3 | O=C(c1c(F)cccc1F)N1COCN(c2ccc(SCC=C(Cl)Cl)cc2F)C1=O [I-37] | 100 | 100 | 
4 | O=C(c1c(F)cccc1F)N1COCN(CC(F)(F)F)C1=O [I-40] | 100 | 100 | 
5 | CCSc1ccc(N2COCN(C(=O)c3c(F)cccc3F)C2=O)c(F)c1 [I-47] | 100 | 100 | 
6 | CC[S+]([O-])c1ccc(N2COCN(C(=O)c3c(F)cccc3F)C2=O)c(F)c1 (stereo not drawn) [I-48] |  | 100 | 
7 | CCCSc1ccc(N2COCN(C(=O)c3c(F)cccc3F)C2=O)c(F)c1 [I-50] |  | 100 | 
8 | CC(C)Sc1ccc(N2COCN(C(=O)c3c(F)cccc3F)C2=O)c(F)c1 [I-53] | 100 | 100 | 
9 | C=CCSc1ccc(N2COCN(C(=O)c3c(F)cccc3F)C2=O)c(F)c1 [I-59] | 100 | 100 | 
10 | C#CCSc1ccc(N2COCN(C(=O)c3c(F)cccc3F)C2=O)c(F)c1 [I-62] | 100 |  | rate of dead pests (%) ([2]; 5 ppm (so in the source)): 100%
11 | O=C(c1c(F)cccc1F)N1COCN(c2ccc(SC(F)(F)F)cc2Cl)C1=O [I-74] | 100 | 100 | 
12 | O=C(c1c(F)cccc1F)N1COCN(c2ccc([S+]([O-])C(F)(F)F)c(Cl)c2Cl)C1=O (stereo not drawn) [I-93] | 100 | 100 | 
13 | O=C(c1c(F)cccc1F)N1COCN(c2cc(Cl)c(SC(F)(F)F)cc2F)C1=O [I-98] | 100 | 95 | 
14 | O=C(c1c(F)cccc1F)N1COCN(c2c(F)cc(SC(F)(F)F)cc2Cl)C1=O [I-101] | 100 | 100 | 
15 | O=C(c1c(F)cccc1Cl)N1COCN(c2ccc(SC(F)(F)F)cc2Cl)C1=O [I-251] |  | 90 | 
16 | O=C(c1c(Cl)cccc1Cl)N1COCN(c2ccc([S+]([O-])C(F)F)cc2F)C1=O (stereo not drawn) [I-396] |  | 100 | 
17 | O=C(c1c(F)cccc1F)N1CSCN(CC(F)(F)F)C1=O [II-64] |  | 95 | 
18 | O=C(OCc1ccccc1)N1CN(C(=O)c2c(F)cccc2F)C(=O)N(c2ccc(Cl)cc2)C1 [III-7, 5-benzyloxycarbonyl-1-(4-chlorophenyl)-3-(2,6-difluorobenzoyl)tetrahydro-1,3,5-triazin-2 (1H)-one] |  |  | pest or weed control at 100 ppm [1]: 100%
19 | CC(=O)N1CN(C(=O)c2c(F)cccc2F)C(=O)N(c2ccc(Cl)cc2)C1 [III-9, 5-acetyl-1-(4-chlorophenyl)-3-(2,6-difluorobenzoyl)tetrahydro-1,3,5-triazin-2(1H)-one] |  |  | pest or weed control at 25 ppm ([2]; 25 ppm): 95%
20 | CC(c1ccccc1)N1CN(C(=O)c2c(F)cccc2F)C(=O)N(c2ccc(Cl)cc2)C1 (stereo not drawn) [III-14] | 100 |  | 

Row | SMILES | rate of dead pests (%) [1] [%] | rate of dead pests (%) ([2]; 25 ppm) | other results
21 | COC(=O)C(=O)N1CN(C(=O)c2c(F)cccc2F)C(=O)N(c2ccc(Cl)cc2)C1 [III-15] |  | 95 | 
22 | O=C(OCc1ccccc1)N1CN(C(=O)c2c(F)cccc2F)C(=O)N(c2ccc(Oc3ccc(C(F)(F)F)cc3Cl)cc2F)C1 [III-22, 5-benzyloxycarbonyl-1-[4-(2-chloro-4-trifluoromethylphenoxy)-2-fluorophenyl]-3-(2,6-difluorobenzoyl)tetrahydro-1,3,5-triazin-2(1H)-one] |  |  | pest or weed control at 100 ppm [1]: 100%
23 | O=C(c1c(F)cccc1F)N1CN(Cc2ccccc2)CN(c2ccc(Oc3ccc(C(F)(F)F)cc3Cl)cc2F)C1=O [III-29] | 100 |  | 
24 | O=C(c1c(F)cccc1F)N1CN(c2ccccc2)CN(c2ccc(Oc3ccc(C(F)(F)F)cc3Cl)cc2F)C1=O [III-30] | 100 |  | 
25 | O=C(c1c(F)cccc1F)N1CN(C(=O)C(F)(F)F)CN(c2ccc(Oc3ccc(C(F)(F)F)cc3Cl)cc2F)C1=O [III-32] | 100 |  | 
26 | O=C(c1c(F)cccc1F)N1CN(C2CC2)CN(c2ccc(Oc3ccc(C(F)(F)F)cc3Cl)cc2F)C1=O [III-36] | 100 |  | 
27 | CN1CN(C(=O)c2c(F)cccc2F)C(=O)N(c2cc(Cl)c(F)c(Cl)c2F)C1 [III-51] | 100 |  | 
28 | CC(C)N1CN(C(=O)c2c(F)cccc2F)C(=O)N(c2cc(Cl)c(F)c(Cl)c2F)C1 [III-52] | 100 |  | 
29 | O=C(c1c(F)cccc1F)N1CN(C2CC2)CN(c2cc(Cl)c(F)c(Cl)c2F)C1=O [III-53] | 100 |  | 
30 | CN1CN(C(=O)c2c(F)cccc2F)C(=O)N(c2cc(Cl)c(OC(F)(F)C(F)C(F)(F)F)cc2Cl)C1 (stereo not drawn) [III-69] | 100 |  | 
31 | CN1CN(C(=O)c2c(F)cccc2F)C(=O)N(c2ccc(SC(F)(F)C(F)Cl)cc2F)C1 (stereo not drawn) [III-76] | 100 |  | 
32 | CN1CN(CC(F)(F)F)C(=O)N(C(=O)c2c(F)cccc2F)C1 [III-144] |  | 100 | 
33 | CS(=O)(=O)N1CN(C(=O)c2c(F)cccc2F)C(=O)N(c2ccc(SC(F)F)cc2F)C1 [III-150] | 100 |  | 
34 | CC(=O)N1CN(C(=O)c2c(F)cccc2F)C(=O)N(c2ccc(SC(F)(F)F)cc2F)C1 [III-161, 1-(2,6-difluorobenzoyl)-3-[2-fluoro-4-(trifluoromethylthio)phenyl]-5-aceyltetrahydro-1,3,5-triazin-2(1H)-one] | 100 |  | 
35 | CS(=O)(=O)N1CN(C(=O)c2c(F)cccc2F)C(=O)N(c2ccc(SC(F)(F)F)cc2F)C1 [III-162, 1-(2,6-difluorobenzoyl)-3-[2-fluoro-4-(trifluoromethylthio)phenyl]-5-methylsulfonyltetrahydro-1,3,5-triazin-2(1H)-one] |  |  | pest or weed control at 100 ppm [1]: 100%
36 | CC(=O)N1CN(C(=O)c2c(F)cccc2F)C(=O)N(c2ccc([S+]([O-])C(F)(F)F)cc2F)C1 (stereo not drawn) [III-165] | 100 |  | 
37 | CS(=O)(=O)N1CN(C(=O)c2c(F)cccc2F)C(=O)N(c2ccc([S+]([O-])C(F)(F)F)cc2F)C1 (stereo not drawn) [III-166] | 100 |  | 
38 | Cc1cc(SC(F)(F)F)ccc1N1CN(C)CN(C(=O)c2c(F)cccc2Cl)C1=O [III-455] | 100 |  | 
39 | O=C(c1c(F)cccc1F)N1C=NCN(c2cc(Cl)c(F)c(Cl)c2F)C1=O [IV-4, 3-(3,5-dichloro-2,4-difluorophenyl)-1-(2,6-difluorobenzoyl)-3,4-dihydro-1,3,5-triazin-2(1H)-one] |  |  | pest or weed control at 25 ppm ([2]; 25 ppm): 100%

Reference: patent US20050159599A1, “Cyclic compound, process for producing the same, and pest control agent” (priority 2002, published 2005)
